Experimental data from US9802921B2, “Fluoromethyl-substituted pyrrole carboxamides iv” (Grünenthal GmbH, priority 2013, dated 2017).

Biological target: T1, Human CaV2.2 channels (Homo sapiens, UniProt Q00975)
T1 construct: expressed in transfected cells
Experiment: Fluorescent assay for CaV2.2 channels using potassium depolarization to induce channel opening (FLIPR, Fluo 4)
Assay type: cell-based
Conditions: read-out: Activity Category: %-Inhib (CaV2.2) @3 μM @30 mM KCl; 3 μM test compound; 30 mM KCl as printed; HEK293 cells stably expressing human CaV2.2
From the text: In the process, the Ca^2+ influx is quantified in the FLIPR assay with the aid of a Ca^2+-sensitive dye (type Fluo-4, Molecular Probes Europe BV, Leiden, the Netherlands) in a fluorescent imaging plate reader (FLIPR 3, Molecular Devices, Sunnyvale, USA), as described hereinafter.
Human CaV2.2 channels were stably expressed in HEK293 cells together with alpha2-delta and beta subunits of voltage gated calcium channels. In addition, an inwardly rectifying potassium channel (Kir2.3) was stably expressed in these cells to augment control of the cell membrane potential by the concentration of extracellular potassium ions. Raise of the extracellular potassium concentration leads to depolarization of the membrane potential and thus regulates the voltage dependent state of CaV2.2 channels. For preparation, cells were seeded in black poly-D-lysine coated 96-well plates (Becton Dickinson, Biocoat 4640) in 100 μL medium [500 mL DMEM/F-12 plus Glutamax (Invitrogen 31331-093) plus 5.5 mL MEM NEAA 100× (Invitrogen 11140-035) plus 50 mL FBS decomplemented (Invitrogen 10270-106) plus 200 μg/mL Geneticin (Invitrogen 10131-027) plus 50 μg/mL Hygromycin B (Invitrogen 10687-010) plus 2 μg/mL Blasticidin (anti-bl5b Invivo-Gen) plus 0.2 μg/mL Puromycin (A 11138-03)] at a cell density of 30.000 cells per well. Plates were incubated at 37° C. (5% CO2) for 20 to 23 h. On the day of experiment medium was discarded and cells were loaded with Fluo 4 by addition of 100 μL of basic assay buffer (10 mM HEPES, 1 mM KCl, 149 mM NaCl, 0.8 mM CaCl2, 1.7 mM MgCl2, 10 mM Glucose, 0.1% BSA. pH 7.4) containing 2 μM Fluo 4 (Molecular Probes; F-14201), 0.01% pluronic acid (Molecular Probes; P-6866) and 2.5 mM probenecid (Molecular Probes; P36400). Cells were incubated in the dark at 25° C. for 60 min. Then dye containing buffer was discarded and 100 μL basic (1 mM KCl) or alternative (30 mM KCl) assay buffer was added. The alternative assay buffer contained altered concentrations of KCl (30 mM) and NaCl (120 mM) and was used in order to promote the inactivated channel state. After that 25 μL of basic or alternative assay buffer with or without test compound were added and cells were incubated again in the dark at 25° C. for 15 min. Fluorescence intensity was measured on a FLIPR 3 instrument (Molecular Devices Corp., Sunnyvale, Calif.) with excitation at 480 nm and emission at 535 nm. After continuously reading fluorescence for 30 sec, 50 μL of basic assay buffer containing 210 mM KCl (NaCl omitted) were added for depolarization. Peak fluorescent signal intensity was determined and the amplitude of the peak signal, normalized to base line, was used to measure channel inhibition by test compounds.

T1 sequence (Q00975 whole entry): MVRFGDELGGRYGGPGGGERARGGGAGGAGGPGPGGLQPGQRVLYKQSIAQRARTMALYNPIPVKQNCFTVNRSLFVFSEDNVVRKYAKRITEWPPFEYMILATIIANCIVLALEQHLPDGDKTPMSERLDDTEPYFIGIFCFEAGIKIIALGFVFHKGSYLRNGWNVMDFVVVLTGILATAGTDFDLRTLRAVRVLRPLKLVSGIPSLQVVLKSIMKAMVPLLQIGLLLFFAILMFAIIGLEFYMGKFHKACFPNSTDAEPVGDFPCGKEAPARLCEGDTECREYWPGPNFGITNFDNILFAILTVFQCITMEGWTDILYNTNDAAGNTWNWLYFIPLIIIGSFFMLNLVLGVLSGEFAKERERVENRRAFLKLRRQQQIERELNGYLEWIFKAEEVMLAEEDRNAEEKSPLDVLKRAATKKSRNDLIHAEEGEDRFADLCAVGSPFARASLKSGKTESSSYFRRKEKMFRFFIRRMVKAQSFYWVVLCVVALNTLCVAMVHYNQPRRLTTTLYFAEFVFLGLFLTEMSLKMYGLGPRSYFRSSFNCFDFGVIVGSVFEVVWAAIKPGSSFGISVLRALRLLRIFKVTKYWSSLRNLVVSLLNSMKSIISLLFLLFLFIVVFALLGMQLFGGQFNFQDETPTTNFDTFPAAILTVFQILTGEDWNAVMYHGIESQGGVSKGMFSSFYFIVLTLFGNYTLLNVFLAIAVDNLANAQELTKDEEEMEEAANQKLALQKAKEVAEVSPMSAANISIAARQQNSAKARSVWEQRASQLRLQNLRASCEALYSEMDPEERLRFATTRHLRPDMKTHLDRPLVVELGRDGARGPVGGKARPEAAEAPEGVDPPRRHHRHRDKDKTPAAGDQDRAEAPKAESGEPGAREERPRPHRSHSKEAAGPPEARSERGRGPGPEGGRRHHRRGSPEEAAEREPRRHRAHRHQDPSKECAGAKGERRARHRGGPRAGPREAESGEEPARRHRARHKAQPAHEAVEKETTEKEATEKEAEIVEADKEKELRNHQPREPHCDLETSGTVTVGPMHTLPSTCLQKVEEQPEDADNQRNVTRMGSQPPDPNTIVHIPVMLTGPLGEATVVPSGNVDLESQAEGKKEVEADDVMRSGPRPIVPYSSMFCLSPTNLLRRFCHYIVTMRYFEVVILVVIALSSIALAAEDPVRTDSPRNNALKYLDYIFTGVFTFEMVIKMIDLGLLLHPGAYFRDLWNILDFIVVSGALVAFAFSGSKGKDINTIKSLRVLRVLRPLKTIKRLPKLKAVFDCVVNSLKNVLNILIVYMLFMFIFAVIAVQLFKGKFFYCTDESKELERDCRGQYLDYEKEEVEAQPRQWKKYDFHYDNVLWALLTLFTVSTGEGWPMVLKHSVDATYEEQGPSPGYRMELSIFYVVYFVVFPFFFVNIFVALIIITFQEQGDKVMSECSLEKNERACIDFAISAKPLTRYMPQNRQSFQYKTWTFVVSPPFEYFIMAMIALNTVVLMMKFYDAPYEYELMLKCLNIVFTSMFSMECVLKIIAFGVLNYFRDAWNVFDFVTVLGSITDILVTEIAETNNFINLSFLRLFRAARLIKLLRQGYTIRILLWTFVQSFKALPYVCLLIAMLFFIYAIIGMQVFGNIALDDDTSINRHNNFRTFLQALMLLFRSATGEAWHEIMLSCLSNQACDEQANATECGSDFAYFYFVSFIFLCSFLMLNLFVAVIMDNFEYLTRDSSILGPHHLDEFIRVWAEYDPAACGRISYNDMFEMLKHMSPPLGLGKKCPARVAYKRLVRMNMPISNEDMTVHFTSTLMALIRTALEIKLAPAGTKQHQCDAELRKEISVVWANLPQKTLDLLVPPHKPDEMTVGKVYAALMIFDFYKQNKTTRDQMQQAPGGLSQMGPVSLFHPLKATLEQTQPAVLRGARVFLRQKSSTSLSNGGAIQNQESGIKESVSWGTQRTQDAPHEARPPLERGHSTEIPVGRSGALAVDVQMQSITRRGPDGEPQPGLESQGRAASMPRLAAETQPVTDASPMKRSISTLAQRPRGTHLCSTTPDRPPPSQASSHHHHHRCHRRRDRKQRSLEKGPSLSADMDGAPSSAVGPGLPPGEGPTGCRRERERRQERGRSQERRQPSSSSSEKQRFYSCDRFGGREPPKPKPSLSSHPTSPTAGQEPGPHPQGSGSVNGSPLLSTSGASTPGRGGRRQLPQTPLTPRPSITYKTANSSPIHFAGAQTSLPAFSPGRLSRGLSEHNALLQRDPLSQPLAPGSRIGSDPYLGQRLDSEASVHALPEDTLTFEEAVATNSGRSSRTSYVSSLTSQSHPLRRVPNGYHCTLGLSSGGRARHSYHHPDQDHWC
T1 sequence (P54289 25-1103, further chain): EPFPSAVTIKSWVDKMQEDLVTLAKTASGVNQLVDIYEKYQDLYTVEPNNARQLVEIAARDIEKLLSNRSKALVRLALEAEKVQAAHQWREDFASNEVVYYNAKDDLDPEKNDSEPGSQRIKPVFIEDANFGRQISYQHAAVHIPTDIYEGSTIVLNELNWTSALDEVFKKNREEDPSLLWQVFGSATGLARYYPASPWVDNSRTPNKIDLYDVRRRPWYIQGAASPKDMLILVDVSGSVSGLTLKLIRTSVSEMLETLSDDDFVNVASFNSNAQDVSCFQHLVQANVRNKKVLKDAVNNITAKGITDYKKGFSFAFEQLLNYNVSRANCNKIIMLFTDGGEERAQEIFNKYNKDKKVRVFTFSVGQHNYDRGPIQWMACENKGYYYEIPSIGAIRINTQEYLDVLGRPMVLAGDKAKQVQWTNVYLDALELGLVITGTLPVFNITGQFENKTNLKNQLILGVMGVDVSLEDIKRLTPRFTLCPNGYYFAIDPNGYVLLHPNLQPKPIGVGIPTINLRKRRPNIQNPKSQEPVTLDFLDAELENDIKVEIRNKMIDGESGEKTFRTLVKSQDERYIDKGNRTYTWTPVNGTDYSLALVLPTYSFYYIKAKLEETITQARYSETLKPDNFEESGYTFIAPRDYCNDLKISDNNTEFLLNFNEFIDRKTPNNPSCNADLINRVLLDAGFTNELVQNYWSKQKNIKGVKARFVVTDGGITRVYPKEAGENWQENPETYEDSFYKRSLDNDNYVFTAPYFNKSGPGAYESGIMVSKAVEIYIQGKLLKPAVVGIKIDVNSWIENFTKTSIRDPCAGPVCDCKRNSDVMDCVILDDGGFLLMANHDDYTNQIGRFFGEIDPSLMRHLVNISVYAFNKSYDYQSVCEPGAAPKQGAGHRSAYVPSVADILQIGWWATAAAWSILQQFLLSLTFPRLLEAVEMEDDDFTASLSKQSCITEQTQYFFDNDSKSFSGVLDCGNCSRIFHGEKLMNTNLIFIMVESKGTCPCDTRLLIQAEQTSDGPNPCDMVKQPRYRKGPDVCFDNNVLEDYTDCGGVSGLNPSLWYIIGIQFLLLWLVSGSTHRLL
T1 sequence (P54284 whole entry, further chain): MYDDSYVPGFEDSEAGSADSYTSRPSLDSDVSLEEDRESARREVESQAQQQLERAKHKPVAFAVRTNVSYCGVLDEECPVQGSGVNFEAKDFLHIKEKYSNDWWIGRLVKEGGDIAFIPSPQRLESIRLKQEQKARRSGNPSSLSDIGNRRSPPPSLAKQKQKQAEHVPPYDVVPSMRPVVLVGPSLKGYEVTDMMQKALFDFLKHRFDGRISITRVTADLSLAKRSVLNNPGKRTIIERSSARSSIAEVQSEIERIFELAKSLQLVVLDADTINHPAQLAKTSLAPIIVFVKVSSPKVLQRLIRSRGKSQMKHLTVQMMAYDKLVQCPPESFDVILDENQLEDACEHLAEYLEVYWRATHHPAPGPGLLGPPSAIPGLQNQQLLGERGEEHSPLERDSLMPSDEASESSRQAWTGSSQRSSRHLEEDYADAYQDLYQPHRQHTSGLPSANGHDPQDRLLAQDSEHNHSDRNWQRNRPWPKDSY

| SMILES | inhibition at 3 µM [%] |
| --- | --- |
| Cc1noc(Cn2c(C(=O)N(C)CCS(C)(=O)=O)c(-c3ccc(Cl)cc3)c(C)c2C(F)(F)F)n1 [Example 015, 3-(4-Chlorophenyl)-N,4-dimethyl-1-[(3-methyl-[1,2,4]oxadiazol-5-yl)-methyl]-N-(2-methylsulfonyl-ethyl)-5-(trifluoromethyl)-1H-pyrrole-2-carboxylic acid amide] | 75 to 95 |
| CC1(C)CN(C(=O)c2c(-c3ccc(F)cc3)cc(C(F)(F)F)n2Cc2ncccn2)CCO1 [Example 031, (2,2-Dimethyl-morpholin-4-yl)-[3-(4-fluorophenyl)-1-(pyrimidin-2-yl-methyl)-5-(trifluoromethyl)-1H-pyrrol-2-yl]-methanone] | 40 to 75 |
| Cc1c(-c2ccc(Cl)cc2)c(C(=O)N2CCOCC2)n(Cc2ncn(C)n2)c1C(F)(F)F [Example 019, [3-(4-Chlorophenyl)-4-methyl-1-[(1-methyl-1H-[1,2,4]triazol-3-yl)-methyl]-5-(trifluoromethyl)-1H-pyrrol-2-yl]-morpholin-4-yl-methanone] | 75 to 95 |
| Cc1c(-c2ccc(Cl)cc2)c(C(=O)N2CCOCC2)n(Cc2ccc[nH]c2=O)c1C(F)(F)F [Example 053, 3-[[3-(4-Chlorophenyl)-4-methyl-2-(morpholine-4-carbonyl)-5-(trifluoromethyl)-1H-pyrrol-1-yl]-methyl]-1H-pyridin-2-one] | 40 to 75 |
| Cc1c(-c2ccc(Cl)cc2)c(C(=O)N2CCOCC2)n(Cc2nncs2)c1C(F)(F)F [Example 024, [3-(4-Chlorophenyl)-4-methyl-1-([1,3,4]thiadiazol-2-yl-methyl)-5-(trifluoromethyl)-1H-pyrrol-2-yl]-morpholin-4-yl-methanone] | 40 to 75 |
| Cc1c(-c2ccc(Cl)cc2)c(C(=O)N2CCOCC2)n(Cc2ncccn2)c1C(F)(F)F [Example 047, [3-(4-Chlorophenyl)-4-methyl-1-(pyrimidin-2-yl-methyl)-5-(trifluoromethyl)-1H-pyrrol-2-yl]-morpholin-4-yl-methanone] | > 95 |
| CN(CC(C)(C)C)C(=O)c1c(-c2ccc(Cl)cc2)cc(C(F)(F)F)n1Cc1cn(C)nn1 [Example 009, 3-(4-Chlorophenyl)-N-(2,2-dimethyl-propyl)-N-methyl-1-[(1-methyl-1H-[1,2,3]triazol-4-yl)-methyl]-5-(trifluoromethyl)-1H-pyrrole-2-carboxylic acid amide] | 75 to 95 |
| Cc1c(-c2ccc(Cl)cc2)c(C(=O)NC2CC2)n(Cc2ncccn2)c1C(F)(F)F [Example 048, 3-(4-Chlorophenyl)-N-cyclopropyl-4-methyl-1-(pyrimidin-2-yl-methyl)-5-(trifluoromethyl)-1H-pyrrole-2-carboxylic acid amide] | 40 to 75 |
| Cc1c(-c2ccc(Cl)cc2F)c(C(=O)N2CCOCC2)n(Cc2ncccn2)c1C(F)(F)F [Example 062, [3-(4-Chloro-2-fluoro-phenyl)-4-methyl-1-(pyrimidin-2-yl-methyl)-5-(trifluoromethyl)-1H-pyrrol-2-yl]-morpholin-4-yl-methanone] | > 95 |
| Cc1c(-c2ccc(Cl)cc2)c(C(=O)N(C)C(C)C)n(Cc2nncs2)c1C(F)(F)F [Example 069, 3-(4-Chlorophenyl)-N-isopropyl-N,4-dimethyl-1-([1,3,4]thiadiazol-2-yl-methyl)-5-(trifluoromethyl)-1H-pyrrole-2-carboxylic acid amide] | > 95 |
| Cc1c(-c2ccc(Cl)cc2)c(C(=O)N2CCOCC2)n(Cc2cccc(=O)[nH]2)c1C(F)(F)F [Example 054, 6-[[3-(4-Chlorophenyl)-4-methyl-2-(morpholine-4-carbonyl)-5-(trifluoromethyl)-1H-pyrrol-1-yl]-methyl]-1H-pyridin-2-one] | 75 to 95 |
| CCc1cc(Cn2c(C(=O)N(C)CCS(C)(=O)=O)c(-c3ccc(Cl)cc3)c(C)c2C(F)(F)F)on1 [Example 001, 3-(4-Chlorophenyl)-1-[(3-ethyl-isoxazol-5-yl)-methyl]-N,4-dimethyl-N-(2-methylsulfonyl-ethyl)-5-(trifluoromethyl)-1H-pyrrole-2-carboxylic acid amide] | > 95 |
| CN(CC(C)(C)C)C(=O)c1c(-c2ccc(Cl)cc2)cc(C(F)(F)F)n1Cc1nncn1C [Example 027, 3-(4-Chlorophenyl)-N-(2,2-dimethyl-propyl)-N-methyl-1-[(4-methyl-4H-[1,2,4]triazol-3-yl)-methyl]-5-(trifluoromethyl)-1H-pyrrole-2-carboxylic acid amide] | 40 to 75 |
| CN(CC(C)(C)C)C(=O)c1c(-c2ccc(Cl)cc2)cc(C(F)(F)F)n1Cc1ncn(C)n1 [Example 013, 3-(4-Chlorophenyl)-N-(2,2-dimethyl-propyl)-N-methyl-1-[(1-methyl-1H-[1,2,4]triazol-3-yl)-methyl]-5-(trifluoromethyl)-1H-pyrrole-2-carboxylic acid amide] | 75 to 95 |
| Cc1c(-c2ccc(Cl)cc2)c(C(=O)N2CCOCC2)n(Cc2cncc(Cl)c2)c1C(F)(F)F [Example 028, [3-(4-Chlorophenyl)-1-[(5-chloro-pyridin-3-yl)-methyl]-4-methyl-5-(trifluoromethyl)-1H-pyrrol-2-yl]-morpholin-4-yl-methanone] | > 95 |
| CN(CC(C)(C)C)C(=O)c1c(-c2ccc(Cl)cc2)cc(C(F)(F)F)n1Cc1nc(C(F)(F)F)no1 [Example 010, 3-(4-Chlorophenyl)-N-(2,2-dimethyl-propyl)-N-methyl-5-(trifluoromethyl)-1-[[3-(trifluoromethyl)-[1,2,4]oxadiazol-5-yl]-methyl]-1H-pyrrole-2-carboxylic acid amide] | 75 to 95 |
| Cc1c(-c2ccc(Cl)cc2)c(C(=O)N(C)CCS(C)(=O)=O)n(Cc2ccc(F)cn2)c1C(F)(F)F [Example 038, 3-(4-Chlorophenyl)-1-[(5-fluoro-pyridin-2-yl)-methyl]-N,4-dimethyl-N-(2-methylsulfonyl-ethyl)-5-(trifluoromethyl)-1H-pyrrole-2-carboxylic acid amide] | > 95 |
| Cc1nnc(Cn2c(C(F)(F)F)cc(-c3ccc(Cl)cc3)c2C(=O)N(C)CC(C)(C)C)o1 [Example 014, 3-(4-Chlorophenyl)-N-(2,2-dimethyl-propyl)-N-methyl-1-[(5-methyl-[1,3,4]oxadiazol-2-yl)-methyl]-5-(trifluoromethyl)-1H-pyrrole-2-carboxylic acid amide] | 75 to 95 |
| Cc1c(-c2ccc(Cl)cc2)c(C(=O)N2CCOCC2)n(Cc2ccnn2C)c1C(F)(F)F [Example 016, [3-(4-Chlorophenyl)-4-methyl-1-[(2-methyl-2H-pyrazol-3-yl)-methyl]-5-(trifluoromethyl)-1H-pyrrol-2-yl]-morpholin-4-yl-methanone] | 75 to 95 |
| Cc1cc(CN(C)C(=O)c2c(-c3ccc(Cl)cc3F)c(C)c(C(F)(F)F)n2Cc2ncccn2)no1 [Example 066, 3-(4-Chloro-2-fluoro-phenyl)-N,4-dimethyl-N-[(5-methyl-isoxazol-3-yl)-methyl]-1-(pyrimidin-2-yl-methyl)-5-(trifluoromethyl)-1H-pyrrole-2-carboxylic acid amide] | > 95 |
| Cc1c(-c2ccc(Cl)cc2)c(C(=O)N(C)CCS(C)(=O)=O)n(Cc2cncn2C)c1C(F)(F)F [Example 003, 3-(4-Chlorophenyl)-N,4-dimethyl-1-[(3-methyl-3H-imidazole-4-yl)-methyl]-N-(2-methylsulfonyl-ethyl)-5-(trifluoromethyl)-1H-pyrrole-2-carboxylic acid amide] | 40 to 75 |
| Cc1noc(Cn2c(C(=O)N3CCOCC3)c(-c3ccc(Cl)cc3)c(C)c2C(F)(F)F)n1 [Example 018, [3-(4-Chlorophenyl)-4-methyl-1-[(3-methyl-[1,2,4]oxadiazol-5-yl)-methyl]-5-(trifluoromethyl)-1H-pyrrol-2-yl]-morpholin-4-yl-methanone] | > 95 |
| Cc1noc(Cn2c(C(F)(F)F)cc(-c3ccc(Cl)cc3)c2C(=O)N(C)CC(C)(C)C)n1 [Example 011, 3-(4-Chlorophenyl)-N-(2,2-dimethyl-propyl)-N-methyl-1-[(3-methyl-[1,2,4]oxadiazol-5-yl)-methyl]-5-(trifluoromethyl)-1H-pyrrole-2-carboxylic acid amide] | > 95 |
